Tests used:
healthy poly-drug users [1] = assay: Physiological effects (non-invasive SBP, DBP, HR, cutaneous temperature) after oral self-administration; format: in vivo, humans; design: key to HR Dunnet’s Test: “a” (times 0–1 h); “b” (times 0–2 h); “c” (times 0–4 h); not significant (NS)
Source text: (§1) The study was designed as a non-controlled prospective observational study in a naturalistic setting with methylone and MDMA self-administration. The methodology, including procedures and evaluations, coincides with previous observational–naturalistic studies aimed at evaluating the acute effects of other NPS [38, 39, 40]. Six subjects (5 M, 1 F) self-administered MDMA and 8 subjects (5 M, 3 F) self-administered methylone. Each subject participated only in one session. Participants brought their own substance obtained from an unknown source, which was tested by Energy Control, a harm reduction organization that provides a drug checking service to drug users. Pills containing methylone and MDMA were analyzed by gas chromatography associated with mass spectrometry (GC/MS), a technique that traces the presence of the most frequent drugs of abuse, such as MDMA, cocaine, heroin, amphetamine and methamphetamine, LSD, and multiple NPS (methylone, mephedrone, and other synthetic cathinones, synthetic cannabinoids, tryptamines, among others).
(§2) In both sessions, participants selected the dose of methylone or MDMA according to their previous drug use experience. Doses of methylone could be selected from a range (75–300 mg) that was previously defined according to the consulted literature. The WHO Expert Committee on Drug Dependence (Thirty-Sixth Meeting, Geneva, Switzerland, 16–20 June 2014) established that 60 mg of methylone was the threshold dose and doses over 250 mg were often related to very strong activity. Some users have reported uses of 300 mg of methylone as a common dose [www.erowid.org] (accessed on 15 June 2021). The mean of the selected doses of MDMA was 87.50 mg (3 subjects ingested 75 mg (2 males and 1 female), 3 males 100 mg). In the other study session, methylone doses ranged from 100 to 300 mg, with a mean of 187.50 mg. Based on their dose selection, 1 male ingested 100 mg, 2 subjects 150 mg (1 male and 1 female), 4 subjects 200 mg (2 males and 2 females), and 1 male 300 mg.
(§3) The sessions were conducted in a naturalistic setting. Participants were allowed to talk, read, listen to music, or play games, except during the evaluation times. However, they were asked to refrain from talking about the effects of the substance. All the subjects were evaluated simultaneously at baseline, 1, 2, and 4 h after administration of methylone or MDMA, which occurred approximately at 16:00 h. At each time point, evaluations were followed in a specific order: physiological effects, oral fluid collection, and subjective effects scales and questionnaires.
Non-invasive systolic blood pressure (SBP), diastolic blood pressure (DBP), and heart rate (HR) were measured with subjects in the sitting position, using an automatic Omron monitor at baseline, 1, 2, and 4 h (h) after self-administration. Cutaneous temperature was determined at the same time points.
Vital signs (SBP, DBP, and HR) and subjective effects (VAS, ARCI, and VESSPA-SSE) were baseline-adjusted. Maximum effects and the time in which maximum effects appeared were determined, and the area under the curve (AUC0–4h) was calculated with the trapezoidal rule.
Thirdly, to find possible significant changes from baseline, a Dunnett multiple comparison test was conducted to compare each time point with baseline in both drug conditions (0–1 h, 0–2 h, 0–4 h).

healthy poly-drug users [2] = assay: Subjective effects, visual analogue scales (VAS); format: in vivo, humans; design: key to VAS stimulated Dunnet’s Test / VAS change in lights Dunnet’s Test / VAS different body feeling Dunnet’s Test / VAS different surrounding Dunnet’s Test / VAS dizziness Dunnet’s Test / VAS headache Dunnet’s Test / VAS face flushing Dunnet’s Test: “a” (times 0–1 h); “b” (times 0–2 h); “c” (times 0–4 h); not significant (NS)
Source text: as §1, §2, §3
Subjective effects were evaluated at baseline, 1, 2, and 4 h after self-administration using visual analogue scales (VAS), the Addiction Research Center Inventory (ARCI), and the Evaluation of Subjective Effects of Substances with Abuse Potential questionnaire (VESSPA-SSE).
Visual analogue scales (100 mm, from “not at all” to “extremely”) contained 30 items that subjects were asked to rate, such as: intensity, stimulated, high, good effects, liking, happiness, drunkenness, changes in colors, changes in shapes, changes in lights, hallucinations (seeing lights or spots), hallucinations (seeing of animals), changes in hearing, hallucinations (hearing sounds or voices), different or changed body feeling, unreal body feeling, changes in distances, different surroundings, unreal surroundings, confusion, fear, depression or sadness, drowsiness, dizziness, bad effects, headache, sickness, vertigo, shortness of breath, and face flushing.
Vital signs (SBP, DBP, and HR) and subjective effects (VAS, ARCI, and VESSPA-SSE) were baseline-adjusted. Maximum effects and the time in which maximum effects appeared were determined, and the area under the curve (AUC0–4h) was calculated with the trapezoidal rule. […]

5-HT2C receptors = test system: 5-HT2C receptors; design: method as in PMID 25237120, PMID 23583454; details: cited from earlier work
[3] = Oral fluid to blood (OF/B) concentration ratio and plasma concentration; details: human, 100 mg
[4] = oral, methylone 100–300 mg n=8, MDMA 75–100 mg n=6, baseline-adjusted, mean ± SD
[5] = time points significantly different from baseline

In the case of `CNC(C)Cc1ccc2c(c1)OCO2` (centres unmarked) [MDMA, 3,4-methylenedioxymethamphetamine], the “DBP AUC0–4h” value (healthy poly-drug users [1]; [4]) is reported as 78.92 ± 30.33, the “DBP Emax” value (healthy poly-drug users [1]; [4]) is reported as 32.17 ± 11.29 mmHg and the “HR AUC0–4h” value (healthy poly-drug users [1]; [4]) is reported as 23.83 ± 38.73. For the same molecule, the “HR Emax” value (healthy poly-drug users [1]; [4]) was 10.67 ± 18.22 bpm, the “SBP AUC0–4h” value (healthy poly-drug users [1]; [4]) was 107.67 ± 44.34 and the “SBP Emax” value (healthy poly-drug users [1]; [4]) was 46.83 ± 20.83 mmHg. For the same molecule, the “Variation in cutaneous temperature” value (healthy poly-drug users [1]; oral, methylone 100–300 mg, MDMA 75–100 mg, versus baseline, 0–4 h) was “Neither of the substances caused significant variations”, the “DBP Dunnet’s Test” value (healthy poly-drug users [1]; [5]) was “a, b” and the “HR Dunnet’s Test” value (healthy poly-drug users [1]; [5]) was “NS”. For the same molecule, the “SBP Dunnet’s Test” value (healthy poly-drug users [1]; [5]) was “a, b”, the “Time at which subjective effects in general reached maximum values” (healthy poly-drug users [2]; oral, VAS, ARCI, VESSPA-SSE overall) was 1.5 h and the “VAS change in lights AUC0–4h” value (healthy poly-drug users [2]; [4]) was 40.00 ± 53.35. The “VAS change in lights Emax” value (healthy poly-drug users [2]; [4]) was 20.00 ± 25.11 mm, the “VAS content AUC0–4h” value (healthy poly-drug users [2]; [4]) was 186.25 ± 52.39 and the “VAS content Emax” value (healthy poly-drug users [2]; [4]) was 74.50 ± 18.96 mm. The “VAS different body feeling AUC0–4h” value (healthy poly-drug users [2]; [4]) was 95.25 ± 53.40, the “VAS different body feeling Emax” value (healthy poly-drug users [2]; [4]) was 50.33 ± 22.59 mm and the “VAS different surrounding AUC0–4h” value (healthy poly-drug users [2]; [4]) was 27.33 ± 39.71. The “VAS different surrounding Emax” value (healthy poly-drug users [2]; [4]) was 17.33 ± 17.68 mm, the “VAS dizziness AUC0–4h” value (healthy poly-drug users [2]; [4]) was 20.17 ± 20.68 and the “VAS dizziness Emax” value (healthy poly-drug users [2]; [4]) was 13.00 ± 9.84 mm. For the same molecule, the “VAS face flushing AUC0–4h” value (healthy poly-drug users [2]; [4]) was 89.33 ± 58.31, the “VAS face flushing Emax” value (healthy poly-drug users [2]; [4]) was 45.00 ± 22.74 mm and the “VAS good effects AUC0–4h” value (healthy poly-drug users [2]; [4]) was 167.67 ± 54.01. The “VAS good effects Emax” value (healthy poly-drug users [2]; [4]) was 67.83 ± 16.51 mm, the “VAS headache AUC0–4h” value (healthy poly-drug users [2]; [4]) was 10.58 ± 18.86 and the “VAS headache Emax” value (healthy poly-drug users [2]; [4]) was 5.83 ± 7.68 mm. For the same molecule, the “VAS high AUC0–4h” value (healthy poly-drug users [2]; [4]) was 136.92 ± 41.05, the “VAS high Emax” value (healthy poly-drug users [2]; [4]) was 60.17 ± 14.96 mm and the “VAS intensity AUC0–4h” value (healthy poly-drug users [2]; [4]) was 111.33 ± 36.34. The “VAS intensity Emax” value (healthy poly-drug users [2]; [4]) was 47 ± 11.19 mm, the “VAS stimulated AUC0–4h” value (healthy poly-drug users [2]; [4]) was 113.17 ± 40.92 and the “VAS stimulated Emax” value (healthy poly-drug users [2]; [4]) was 50.17 ± 17.12 mm. The “VAS change in lights Tmax” value (healthy poly-drug users [2]; oral, methylone 100–300 mg n=8, MDMA 75–100 mg n=6, median (min–max)) was 1.5 (0.0–4.0) h, the “VAS change in lights Dunnet’s Test” value (healthy poly-drug users [2]; [5]) was “NS” and the “VAS content Dunnet’s Test” value (healthy poly-drug users [2]; [5]) was “a, b, c”. For the same molecule, the “VAS different body feeling Dunnet’s Test” value (healthy poly-drug users [2]; [5]) was “a”, the “VAS different surrounding Dunnet’s Test” value (healthy poly-drug users [2]; [5]) was “a” and the “VAS dizziness Dunnet’s Test” value (healthy poly-drug users [2]; [5]) was “NS”. For the same molecule, the “VAS face flushing Dunnet’s Test” value (healthy poly-drug users [2]; [5]) was “a”, the “VAS good effects Dunnet’s Test” value (healthy poly-drug users [2]; [5]) was “a, b” and the “VAS headache Dunnet’s Test” value (healthy poly-drug users [2]; [5]) was “NS”. For the same molecule, the “VAS high Dunnet’s Test” value (healthy poly-drug users [2]; [5]) was “a, b”, the “VAS intensity Dunnet’s Test” value (healthy poly-drug users [2]; [5]) was “a, b” and the “VAS stimulated Dunnet’s Test” value (healthy poly-drug users [2]; [5]) was “a, b”. For the same molecule, the “Activity at 5-HT2C receptors” value (5-HT2C receptors) was “partial agonist rather than an antagonist” and the Kp [3] was 22.4.

From article PMC8389614, “A Comparison of Acute Pharmacological Effects of Methylone and MDMA Administration in Humans and Oral Fluid Concentrations as Biomarkers of Exposure” (Biology, 2021)
